Measurements from ChEMBL document CHEMBL1201862, “PubChem BioAssay data set” (2004).
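Cells were grown in 96-well plates and exposed to each compound for 48 hours at five concentrations; endpoints were interpolated linearly between bracketing concentrations, or set to the highest concentration if not reached. GI50: concentration for 50% inhibition of growth.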 Active and inactive are the calls of the source. No stated cut-off is given here; in the data, active = GI50 up to about 1.1 µM and inactive = higher.

Legend:
Test in all cases: NCI-60 cell line screen, 48 h
NCI-H23 = test system: NCI-H23
SK-OV-3 = test system: SK-OV-3
DU-145 = test system: DU-145
SNB-75 = test system: SNB-75
SNB-19 = test system: SNB-19
T47D = test system: T47D
OVCAR-5 = test system: OVCAR-5
RPMI-8226 = test system: RPMI-8226
SK-MEL-5 = test system: SK-MEL-5
RXF 393 = test system: RXF 393
HOP-62 = test system: HOP-62
NCI-H460 = test system: NCI-H460
IGROV-1 = test system: IGROV-1
MOLT-4 = test system: MOLT-4
HCT-15 = test system: HCT-15
COLO 205 = test system: COLO 205
SW-620 = test system: SW-620
OVCAR-8 = test system: OVCAR-8
A498 = test system: A498
KM12 = test system: KM12
TK-10 = test system: TK-10
UACC-62 = test system: UACC-62
MDA-N = test system: MDA-N
Malme-3M = test system: Malme-3M
CAKI-1 = test system: CAKI-1
OVCAR-4 = test system: OVCAR-4
UO-31 = test system: UO-31
A549 = test system: A549
SK-MEL-2 = test system: SK-MEL-2
SF-539 = test system: SF-539
SR = test system: SR
M14 = test system: M14
ACHN = test system: ACHN
HL-60 = test system: HL-60
SF-295 = test system: SF-295
K562 = test system: K562
PC-3 = test system: PC-3
HT-29 = test system: HT-29
UACC-257 = test system: UACC-257
786-0 = test system: 786-0
NCI/ADR-RES = test system: NCI/ADR-RES
NCI-H226 = test system: NCI-H226
BT-549 = test system: BT-549
OVCAR-3 = test system: OVCAR-3
MCF7 = test system: MCF7
MDA-MB-435 = test system: MDA-MB-435
SN12C = test system: SN12C
SK-MEL-28 = test system: SK-MEL-28
Hs-578T = test system: Hs-578T
LOX IMVI = test system: LOX IMVI
MDA-MB-231 = test system: MDA-MB-231
U-251 = test system: U-251
SF-268 = test system: SF-268
HCT-116 = test system: HCT-116
EKVX = test system: EKVX
NCI-H522 = test system: NCI-H522
CCRF-CEM = test system: CCRF-CEM
HOP-92 = test system: HOP-92

C1=CC2(C=CC13O[C@H](C1CCCCC1)[C@@H](C1CCCCC1)O3)O[C@H](C1CCCCC1)[C@@H](C1CCCCC1)O2
GI50 (NCI-H23): > 50 µM (inactive) | GI50 (SK-OV-3): > 50 µM (inactive) | GI50 (DU-145): > 50 µM (inactive) | GI50 (SNB-75): > 50 µM (inactive) | GI50 (SNB-19): > 50 µM (inactive) | GI50 (T47D): > 50 µM (inactive) | GI50 (OVCAR-5): > 50 µM (inactive) | GI50 (RPMI-8226): 23.2 µM (inactive) | GI50 (SK-MEL-5): > 50 µM (inactive) | GI50 (RXF 393): > 50 µM (inactive) | GI50 (HOP-62): > 50 µM (inactive) | GI50 (NCI-H460): > 50 µM (inactive) | GI50 (IGROV-1): > 50 µM (inactive) | GI50 (MOLT-4): > 50 µM (inactive) | GI50 (HCT-15): > 50 µM | GI50 (COLO 205): > 50 µM (inactive) | GI50 (SW-620): > 50 µM (inactive) | GI50 (OVCAR-8): > 50 µM (inactive) | GI50 (A498): > 50 µM (inactive) | GI50 (KM12): > 50 µM (inactive) | GI50 (TK-10): > 50 µM (inactive) | GI50 (UACC-62): > 50 µM (inactive) | GI50 (MDA-N): > 50 µM (inactive) | GI50 (Malme-3M): > 50 µM (inactive) | GI50 (CAKI-1): > 50 µM (inactive) | GI50 (OVCAR-4): > 50 µM (inactive) | GI50 (UO-31): > 50 µM (inactive) | GI50 (A549): > 50 µM (inactive) | GI50 (SK-MEL-2): > 50 µM (inactive) | GI50 (SF-539): > 50 µM (inactive) | GI50 (SR): > 50 µM (inactive) | GI50 (M14): > 50 µM (inactive) | GI50 (ACHN): > 50 µM (inactive) | GI50 (HL-60): > 50 µM (inactive) | GI50 (SF-295): > 50 µM (inactive) | GI50 (K562): > 50 µM (inactive) | GI50 (PC-3): > 50 µM (inactive) | GI50 (HT-29): > 50 µM (inactive) | GI50 (UACC-257): > 50 µM (inactive) | GI50 (786-0): > 50 µM (inactive) | GI50 (NCI/ADR-RES): > 50 µM (inactive) | GI50 (NCI-H226): > 50 µM (inactive) | GI50 (BT-549): > 50 µM (inactive) | GI50 (OVCAR-3): > 50 µM (inactive) | GI50 (MCF7): > 50 µM (inactive) | GI50 (MDA-MB-435): > 50 µM (inactive) | GI50 (SN12C): > 50 µM (inactive) | GI50 (SK-MEL-28): > 50 µM (inactive) | GI50 (Hs-578T): > 50 µM (inactive) | GI50 (LOX IMVI): > 50 µM (inactive) | GI50 (MDA-MB-231): > 50 µM (inactive) | GI50 (U-251): > 50 µM (inactive) | GI50 (SF-268): > 50 µM (inactive) | GI50 (HCT-116): > 50 µM (inactive)

O=CC(O)C(O)C(O)C1CNC(=S)O1 (stereo unspecified)
GI50 (NCI-H23): > 100 µM (inactive) | GI50 (SK-OV-3): > 100 µM (inactive) | GI50 (DU-145): > 100 µM (inactive) | GI50 (SNB-75): > 100 µM (inactive) | GI50 (T47D): > 100 µM (inactive) | GI50 (OVCAR-5): > 100 µM (inactive) | GI50 (RPMI-8226): > 100 µM (inactive) | GI50 (SK-MEL-5): > 100 µM (inactive) | GI50 (RXF 393): > 100 µM (inactive) | GI50 (HOP-62): > 100 µM (inactive) | GI50 (NCI-H460): > 100 µM (inactive) | GI50 (IGROV-1): > 100 µM (inactive) | GI50 (MOLT-4): > 100 µM (inactive) | GI50 (EKVX): > 100 µM (inactive) | GI50 (HCT-15): > 100 µM | GI50 (COLO 205): > 100 µM (inactive) | GI50 (SW-620): > 100 µM (inactive) | GI50 (OVCAR-8): > 100 µM (inactive) | GI50 (A498): > 100 µM (inactive) | GI50 (KM12): > 100 µM (inactive) | GI50 (TK-10): > 100 µM (inactive) | GI50 (UACC-62): > 100 µM (inactive) | GI50 (MDA-N): > 100 µM (inactive) | GI50 (Malme-3M): > 100 µM (inactive) | GI50 (CAKI-1): > 100 µM (inactive) | GI50 (OVCAR-4): > 100 µM (inactive) | GI50 (UO-31): > 100 µM (inactive) | GI50 (A549): > 100 µM (inactive) | GI50 (SK-MEL-2): > 100 µM (inactive) | GI50 (SF-539): > 100 µM (inactive) | GI50 (SR): > 100 µM (inactive) | GI50 (M14): > 100 µM (inactive) | GI50 (ACHN): > 100 µM (inactive) | GI50 (HL-60): > 100 µM (inactive) | GI50 (SF-295): > 100 µM (inactive) | GI50 (K562): > 100 µM (inactive) | GI50 (PC-3): > 100 µM (inactive) | GI50 (HT-29): > 100 µM (inactive) | GI50 (NCI-H522): > 100 µM (inactive) | GI50 (UACC-257): > 100 µM (inactive) | GI50 (786-0): > 100 µM (inactive) | GI50 (NCI/ADR-RES): > 100 µM (inactive) | GI50 (CCRF-CEM): > 100 µM (inactive) | GI50 (NCI-H226): > 100 µM (inactive) | GI50 (BT-549): > 100 µM (inactive) | GI50 (OVCAR-3): > 100 µM (inactive) | GI50 (MCF7): > 100 µM (inactive) | GI50 (MDA-MB-435): > 100 µM (inactive) | GI50 (SN12C): > 100 µM (inactive) | GI50 (HOP-92): > 100 µM (inactive) | GI50 (SK-MEL-28): > 100 µM (inactive) | GI50 (Hs-578T): > 100 µM (inactive) | GI50 (LOX IMVI): > 100 µM (inactive) | GI50 (MDA-MB-231): > 100 µM (inactive) | GI50 (U-251): > 100 µM (inactive) | GI50 (SF-268): > 100 µM (inactive) | GI50 (HCT-116): > 100 µM (inactive)
